{
  "source": "patent US6476243B1",
  "about": "“Perfluorinated esters of alkanoyl L-carnitine for the preparation of cationic lipids for the intracellular delivery of pharmacologically active compounds” (Sigma-Tau Industrie Farmaceutiche Riunite S.p.A., priority 1998, dated 2002)",
  "assay_type_in_all_cases": "cell-based, human",
  "conditions_in_all_cases": "for β-Gal: liposome-DNA complex, with serum",
  "key": {"MCF-7 cells": {"tested_on": "MCF-7 cells", "assay": "pCMV-β-Gal plasmid DNA transfection mediated by ST1223 cationic liposomes, β-galactosidase by ELISA, MCF-7 cells", "procedure": "(§1) Liposomes were prepared starting with 200 mg of ST1223, synthesised according to the procedure described in EXAMPLE 1 and solubilised in 50 mL of chloroform (solubilisation phase). The solvent was then eliminated under vacuum for one night (t 30-40° C.; 400-700 mm Hg). The sample was hydrated with deionised water to a final concentration of 5 mM (hydration phase). The liposomes were then subjected to sonication for 1 h at 10-second intervals using a sonication bath. The liposomes thus prepared produced unilaminar vesicles.\n(§2) The liposome-DNA complex was prepared by mixing the two solutions A and B described here below:\n(§3) Solution A: 2.5 μg of plasmid DNA (pCMV/β- Gal, 7200 base pairs, used for the expression of the enzyme β-galactosidase) were diluted sterilely in 50 μl of HBS (HEPES 20 mM; NaCl 150 mM, pH 7.4)\n(§4) Solution B: the liposome, prepared according to EXAMPLE 7, was diluted in distilled H2O to a concentration of 1.29 mM and 15 μL of this solution were diluted in 50 µL of distilled H2O).\n(§5) The two solutions were mixed by stirring gently and incubated for 10-30 min at room temperature.\n(§6) pCMV-β-Gal DNA transfection mediated by cationic liposomes in the various cell lines HeLa, MCF-7, Caco2, and T98-G was performed at different cell densities: 100,000 cells/dish 200.000 cells/dish and 300.000 cells/dish.\n(§7) HeLa, MCF-7, Caco2 and T98-G cells were grown for 48 h (37° C., 5% CO2) in the following growth media:\nMCF-7 cells DMEM (Dulbecco Modified Eagle Medium, SIGMA catalogue), 10% fetal calf serum, 1% L-glutamine, 1% streptomycin, 1% penicillin\n(§8) Cells were plated at different densities (100.000 cells/dish, 200.000 cells/dish, 300.000 cells/dish) in Petri dishes (Corning or Falcon) measuring approximately 3 cm in diameter and incubated in 2 mL of medium for 18 h before being treated.\n(§9) After replacing the medium with 2 mL of fresh medium, […] of the liposome-DNA complex, prepared as described in EXAMPLE 8, were added to each dish; after gentle stirring, the dishes were placed in a thermostat for 5 h (37° C., 5% CO2). Later, the cells were washed three times with 5 mL PBS buffer (Gibco catalogue) per dish and incubated for 16 h (37° C., 5% CO2).\n(§10) After washing the cells three times with 5 mL PBS buffer (Gibco catalogue) per dish, total proteins were extracted and 50 μg of these were loaded per well in order to determine β-galactosidase production by immunoassay (β-Gal ELISA Kit, Boehringer)."}, "HeLa cells": {"tested_on": "HeLa cells", "assay": "pCMV-β-Gal plasmid DNA transfection mediated by ST1223 cationic liposomes, β-galactosidase by ELISA, HeLa cells", "procedure": "as §1, §2, §3, §4, §5, §6, §7\nHeLa cells RPMI-1640 (HyQ catalogue), 10% fetal calf serum, 1% L-glutamine, 1% streptomycin, 1% penicillin\nas §8, §9, §10"}, "T98-G cells": {"tested_on": "T98-G cells", "assay": "pCMV-β-Gal plasmid DNA transfection mediated by ST1223 cationic liposomes, β-galactosidase by ELISA, T98-G cells", "procedure": "as §1, §2, §3, §4, §5, §6, §7\nT98-G cells EMEM (Essential Minimum Eagle Medium, SIGMA catalogue), 10% fetal calf serum, 1% L-glutamine, 1% streptomycin, 1% penicillin.\nas §8, §9, §10"}, "Caco2 cells": {"tested_on": "Caco2 cells", "assay": "pCMV-β-Gal plasmid DNA transfection mediated by ST1223 cationic liposomes, β-galactosidase by ELISA, Caco2 cells", "procedure": "as §1, §2, §3, §4, §5, §6, §7\nCaco2 cells EMEM (Essential Minimum Eagle Medium, SIGMA catalogue), 15% fetal calf serum, 1% L-glutamine, 1% streptomycin, 1%, penicillin\nas §8, §9, §10"}},
  "data": [
    {"smiles": "CCCCCCCCCCC(=O)O[C@H](CC(=O)OCCC(F)(F)C(F)(F)C(F)(F)C(F)(F)C(F)(F)C(F)(F)C(F)(F)C(F)(F)F)C[N+](C)(C)C.[Cl-]", "note": "[ST1223, undecanoyl-L-carnitine chloride 1,1H-2,2H-hepatdecafluorodecyl ester]", "values": [
      {"measurement": "cell density of greatest transfection efficiency", "setting": "MCF-7 cells", "value": 200.000, "unit": "cells/dish"},
      {"measurement": "β-Gal", "setting": "MCF-7 cells; density 100.000 cells/dish", "value": 234, "unit": "pg/dish"},
      {"measurement": "β-Gal", "setting": "MCF-7 cells; density 200.000 cells/dish", "value": 422, "unit": "pg/dish"},
      {"measurement": "β-Gal", "setting": "MCF-7 cells; density 300.000 cells/dish", "value": 409, "unit": "pg/dish"},
      {"measurement": "cell density of greatest transfection efficiency", "setting": "HeLa cells", "value": 200.000, "unit": "cells/dish"},
      {"measurement": "β-Gal", "setting": "HeLa cells; density 100.000 cells/dish", "value": 87, "unit": "pg/dish"},
      {"measurement": "β-Gal", "setting": "HeLa cells; density 200.000 cells/dish", "value": 303, "unit": "pg/dish"},
      {"measurement": "β-Gal", "setting": "HeLa cells; density 300.000 cells/dish", "value": 83, "unit": "pg/dish"},
      {"measurement": "cell density of greatest transfection efficiency", "setting": "T98-G cells", "value": 300.000, "unit": "cells/dish"},
      {"measurement": "β-Gal", "setting": "T98-G cells; density 100.000 cells/dish", "value": 126, "unit": "pg/dish"},
      {"measurement": "β-Gal", "setting": "T98-G cells; density 200.000 cells/dish", "value": 330, "unit": "pg/dish"},
      {"measurement": "β-Gal", "setting": "T98-G cells; density 300.000 cells/dish", "value": 491, "unit": "pg/dish"},
      {"measurement": "cell density of greatest transfection efficiency", "setting": "Caco2 cells", "value": 100.000, "unit": "cells/dish"},
      {"measurement": "β-Gal", "setting": "Caco2 cells; density 100.000 cells/dish", "value": 422, "unit": "pg/dish"},
      {"measurement": "β-Gal", "setting": "Caco2 cells; density 200.000 cells/dish", "value": 395, "unit": "pg/dish"},
      {"measurement": "β-Gal", "setting": "Caco2 cells; density 300.000 cells/dish", "value": 385, "unit": "pg/dish"}
    ]}
  ]
}
